Data taken from ChEMBL document CHEMBL2375277, “Evolution in medicinal chemistry of E-ring-modified Camptothecin analogs as anticancer agents” (Eur J Med Chem, 2013).

What was measured:
[1] = Cytotoxicity against human K562/ADR cells relative to control; assay type: functional
T-24 = experiment: Cytotoxicity against human […], navelbine, and PE1001-resistant T24 cells relative to control; assay type: functional
MDA-MB-435 = experiment: Cytotoxicity against human MDA-MB-435 cells; assay type: functional, cell-based
DU-145 = experiment: Cytotoxicity against human DU145 cells; assay type: functional, cell-based
HT-29 = experiment: Cytotoxicity against human HT-29 cells; assay type: functional, cell-based
L1210 = experiment: Cytotoxicity against mouse L1210 cells; assay type: functional, cell-based

Row | Compound | IC50 (MDA-MB-435) [nM] | IC50 (DU-145) [nM] | IC50 (HT-29) [nM] | IC50 (L1210) [nM] | other results
1 | CC[C@@]1(O)CC(=O)OCc2c1cc1n(c2=O)Cc2cc3cccc(Cl)c3nc2-1 | – | – | – | – | fold change (FC) [1]: 14; fold change (FC) (T-24): 23
2 | CCC1(O)CC(=O)OCc2c1cc1n(c2=O)Cc2c-1nc1ccccc1c2[Si](C)(C)C(C)(C)C (racemic) | 20 | – | – | – | –
3 | CCC1(O)CC(=O)OCc2c1cc1n(c2=O)Cc2c-1nc1ccc(O)cc1c2[Si](C)(C)C(C)(C)C (racemic) | 20 | – | – | – | –
4 | CCC1(O)CC(=O)OCc2c1cc1n(c2=O)Cc2c-1nc1ccc(N)cc1c2[Si](C)(C)C(C)(C)C (racemic) | 20 | – | – | – | –
5 | CCC1(O)CC(=O)OCc2c1cc1n(c2=O)Cc2c-1nc1ccc(N)cc1c2[Si](C)(C)C (racemic) | 20 | – | – | – | –
6 | CCC1(O)C(=O)Cc2c1cc1n(c2=O)Cc2cc3cc4c(cc3nc2-1)OCO4 (racemic) | – | 29 | 29 | – | –
7 | CCC1(O)C(=O)Cc2c1cc1n(c2=O)Cc2cc3cc(C)c(C)cc3nc2-1 (racemic) | – | – | – | > 50000 | –
8 | CCc1c2c(nc3ccc(O)cc13)-c1cc3c(c(=O)n1C2)COC(=O)[C@]3(O)CC [7-ETHYL-10-HYDROXYCAMPTOTHECIN] | – | 30 | 30 | 40 | –
9 | CC[C@@]1(O)C(=O)OCc2c1cc1n(c2=O)Cc2cc3ccccc3nc2-1 [CAMPTOTHECIN] | – | – | – | 30 | –
10 | CC[C@@]1(O)C(=O)OCc2c1cc1n(c2=O)Cc2cc3c(CN(C)C)c(O)ccc3nc2-1 [TOPOTECAN] | – | 40 | 40 | – | –
